Source: US9480235B1, “Red lettuces with increased anthocyanins, polyphenols, and oxygen radical absorption capacity” (Rutgers, The State University of New Jersey, priority 2012, dated 2016)

How the values were obtained:
Assay type in all cases: in vivo, C57Bl/6J mice
[1] = system: diet induced obese hyperglycemic mice; experiment: Experiment 1: fasting blood glucose after single oral NFR-S-4 lettuce; details: for FBG: mean +/- SD
Method: (§1) Five-week-old male C57Bl/6J mice (Jackson Labs) were housed in cages (five mice to a cage) at 25° C. with 12-h light-dark cycle. Mice were given ad libitum access to food and water and after an acclimatization period of one week, rodent diet was switched from chow (Purina, No. 5015) to a very high fat diet (VHFD) containing 60% kcal fat (D12492, Research Diets, New Brunswick, N.J.) for a at least 12 weeks to induce obesity, insulin resistance, and hyperglycemia (Surwit et al., Clin. Exp. Met., 44:645-51, 1995). Weekly food intake per cage and individual body weight measurements were determined throughout the study. All mice were introduced to intragastric feeding prior to treatment. During this time, a gavage administration of 0.2 mL of double distilled water was performed daily for 2-3 days prior to the scheduled experiments.
(§2) For all experiments, mice were randomly divided into fasting blood glucose (FBG)-balanced experimental groups. Lettuce leaves were lyophilized powdered and suspended in 66% labrasol or water for the aqueous extract and Metformin® antidiabetic drug was dissolved in water. Blood glucose levels were measured using an AlphaTrak® handheld glucometer (Abbott Labs Inc., Abbott Park, Ill.) using test strips.
In experiment 1, following a 4 hour fasting period, FBG was measured immediately prior to treatment and 6 hours post treatment. […]
(§3) Statistically significant differences between were analyzed by ANOVA followed by Dunnett's multiple comparisons test and/or paired t-tests (one tail) comparing FBG levels immediately prior to treatment (0 h) and 6 hours after treatment (Table 5). A p-value <0.05 was considered statistically significant.

[2] = system: diet induced obese hyperglycemic mice; experiment: Experiment 2: oral glucose tolerance test after daily oral NFR-S-4 aqueous extract; details: positive control 250 mg/kg
Method: as §1, §2
(§4) In experiment 2, high fat diet-induced obese mice, animals were given daily oral administration of NFR-S-4 aqueous extract (100 or 300 mg/kg) or vehicle (water) for 28 days (n=10) (Table 6). A Metformin® antidiabetic drug group (250 mg/kg) was included as a positive control for the animal model (n=5). Aqueous extracts were prepared by a 5:1 extraction (solvent volume to fresh weight) in hot (100° C.) acidified water (pH 2 with H2SO4) to assist with anthocyanin stability during the extraction process. Mice were fasted overnight prior to an oral glucose tolerance test. For oral glucose tolerance tests, mice were given an oral glucose challenge (2 g/kg) and blood glucose levels were measured prior to glucose challenge and 30, 60, 90, 120 and 180 minutes after glucose administration (Table 6).
as §3

[3] = system: diet induced obese hyperglycemic mice; experiment: Experiment 3: fasting blood glucose after single oral S-13 lettuce
Method: as §1, §2
In experiment 3, mice were treated using an oral ingestion of vehicle (66% labrasol), S-13 lettuce (100, 300 or 450 mg/kg), green Romaine lettuce (450 mg/kg, commercially available), or Metformin® antidiabetic drug (300 mg/kg) (n=4-5 Following a 4 h fasting period, FBG was measured immediately prior to treatment and 6 h post treatment (Table 7).
as §3

[4] = system: diet induced obese hyperglycemic mice; experiment: Experiment 4: oral glucose tolerance test 2 h after oral S-13 lettuce; details: 300 mg/kg oral 2 h before test
Method: as §1, §2, §4
In experiment 4, mice were treated with S-13 lettuce (100 mg/kg), vehicle (66% labrasol), or Metformin® antidiabetic drug (300 mg/kg) by oral administration (n=8-10). After 2 h, mice were given an oral glucose tolerance test as described above (Table 8).
as §3

[5] = 6 h post treatment, 300 mg/kg oral

CN(C)C(=N)N=C(N)N [Metformin]
FBG ([1]; 0 h (immediately prior to treatment), 4 h fast, 300 mg/kg oral group): 222 ± 19 mg/dL | % Decrease in FBG ([1]; 0 h to 6 h, 300 mg/kg oral): 39 +/− 14% | FBG [1, 5]: 133 ± 25 mg/dL | FBG, oral glucose tolerance test ([2]; 0 min, glucose 2 g/kg): 181 ± 26 mg/dL | FBG, oral glucose tolerance test ([2]; 30 min): 298 ± 52 mg/dL | FBG, oral glucose tolerance test ([2]; 60 min): 244 ± 19 mg/dL | FBG, oral glucose tolerance test ([2]; 90 min): 247 ± 32 mg/dL | FBG, oral glucose tolerance test ([2]; 120 min): 249 ± 35 mg/dL | Area under the curve, oral glucose tolerance test [2]: 30153 | FBG ([3]; 0 (immediately prior to treatment), 4 h fast, 300 mg/kg oral group, mean +/- SD): 214 ± 20 mg/dL | % Decrease in FBG ([3]; 0 to 6 h, 300 mg/kg oral): 31 +/− 19% | FBG [3, 5]: 146 ± 34 mg/dL | FBG, oral glucose tolerance test ([4]; 0 min, glucose 2 g/kg): 206 ± 45 mg/dL | Area under the curve, oral glucose tolerance test [4]: 40683 | FBG, oral glucose tolerance test ([4]; 30 min): 261 ± 51 mg/dL | FBG, oral glucose tolerance test ([4]; 60 min): 263 ± 69 mg/dL | FBG, oral glucose tolerance test ([4]; 90 min): 257 ± 62 mg/dL | FBG, oral glucose tolerance test ([4]; 120 min): 196 ± 31 mg/dL | FBG, oral glucose tolerance test ([4]; 180 min): 176 ± 30 mg/dL
